Source: patent US9931331B2 (priority 2013, dated 2018)

Experiments:
[1] = in vitro; details: human
Protocol: (§1) Strains of cervical cancer cell (HeLa), kidney cancer cell (Caki-1), brain tumor cell (T98G), breast cancer cell (MDA-MB 435S), and colon cancer cell (DLD-1), multiple myeloma cell (RPMI-8226), and a strain of normal breast epithelial cell (MCF-10A) were available from ATCC (American Type Culture Collection, USA). The strains of cervical cancer cell (HeLa), kidney cancer cell (Caki-1), brain tumor cell (T98G), breast cancer cell (MDA-MB 435S), and colon cancer cell (DLD-1) were cultured by using a DMEM medium including 10% fetal bovine serum (FBS), 2 mM of L-glutamin, 100 i.u./ml of penicillin, and […] of streptomycin for the culture and maintenance; multiple myeloma cell (RPMI-8226) was cultured by using a RPMI1640 medium including 10% FBS, 100 i.u./ml of penicillin, and […] of streptomycin; and the strain of normal breast epithelial cell (MCF-10A) was cultured by using a mammary epithelial growth medium (MEGM) including a bovine pituitary extract, insulin, human epidermal growth factor, hydrocortisone, and antibiotics, and the culture conditions included 37° C. and 5% CO2 in an incubator.
(§2) Then, the cells were stained by using 2 μM calcein-AM and 4 μM ethidium homodimer-1, and cell viability was measured by using a fluorescent microscope (Axiovert 200M, available from Carl Zeiss, Jena, Germany).

[2] = test system: kidney cancer cell (Caki-1); experiment: Cell viability (calcein-AM / ethidium homodimer-1), Caki-1; details: Homo sapiens, CAKI-1, 24 h
Protocol: as §1, §2

[3] = test system: breast cancer cell (MDA-MB 435S); experiment: Cell viability (calcein-AM / ethidium homodimer-1), MDA-MB 435S; details: 24 h
Protocol: as §1, §2

[4] = test system: brain tumor cell (T98G); experiment: Cell viability (calcein-AM / ethidium homodimer-1), T98G; details: Homo sapiens, 24 h
Protocol: as §1, §2

[5] = test system: cervical cancer cell (HeLa); experiment: Cell viability (calcein-AM / ethidium homodimer-1), HeLa; details: Homo sapiens, 24 h
Protocol: as §1, §2

[6] = test system: colon cancer cell (DLD-1); experiment: Cell viability (calcein-AM / ethidium homodimer-1), DLD-1; details: Homo sapiens, DLD-1, 24 h
Protocol: as §1, §2

[7] = test system: multiple myeloma cell (RPMI-8226); experiment: Cell viability (calcein-AM / ethidium homodimer-1), RPMI-8226; details: Homo sapiens, RPMI-8226, 24 h, read-out: Cell viability
Protocol: as §1, §2

[8] = read-out: cell viability decreased
[9] = Homo sapiens, MDA-MB-435S, read-out: Cell viability
[10] = Homo sapiens, MDA-MB-435S, read-out: cell viability decreased

SMILES: CC(C)C[C@H](NC(=O)[C@H](Cc1ccccc1)NC(=O)c1cnccn1)B(O)O [Bortezomib, N-(2-pyrazine)carbonyl-L-phenylalanine-L-leucine boronic acid]
- viability at 24 h, 15 nM [1]: 98.8%
- viability at 24 h, 30 nM [1]: 94.6%
- viability at 0.01 µM ([2]; read-out: Cell viability): 100%
- viability at 0.02 µM ([2]; read-out: Cell viability): 78%
- cytotoxicity at 0.02 µM [2, 8]: ~22%
- viability at 0.0075 µM [3, 9]: 100%
- viability at 0.015 µM [3, 9]: 91%
- cancer cell toxicity ([3]; MDA-MB 435S, bortezomib alone up to 15 nM): did not induce cancer cell toxicity
- viability at 0.005 µM ([4]; read-out: Cell viability): 99.7%
- viability at 0.01 µM ([4]; read-out: Cell viability): 89.7%
- viability at 0.02 µM ([5]; read-out: Cell viability): 100%
- viability at 0.04 µM ([5]; read-out: Cell viability): 90.8%
- cytotoxicity at 0.04 µM [5, 8]: ~10%
- viability at 0.04 µM ([6]; read-out: Cell viability): 99.7%
- viability at 0.06 µM ([6]; read-out: Cell viability): 95%
- viability at 0.001 µM [7]: 100%
- viability at 0.002 µM [7]: 81.7%

SMILES: CC(C)C[C@H](NC(=O)[C@H](CCc1ccccc1)NC(=O)CN1CCOCC1)C(=O)N[C@@H](Cc1ccccc1)C(=O)N[C@@H](CC(C)C)C(=O)[C@@]1(C)CO1 [Carfilzomib]
- viability at 24 h, 50 nM [1]: 99.5%
- viability at 24 h, 100 nM [1]: 98.1%
- viability at 0.05 µM ([2]; read-out: Cell viability): 95.6%
- viability at 0.1 µM ([2]; read-out: Cell viability): 95.2%
- viability at 0.025 µM [3, 9]: 87.1%
- viability at 0.05 µM [3, 9]: 84.4%
- cytotoxicity at 0.05 µM [3, 10]: ~15%
- viability at 0.02 µM ([4]; read-out: Cell viability): 100%
- viability at 0.04 µM ([4]; read-out: Cell viability): 93%
- viability at 0.05 µM ([5]; read-out: Cell viability): 90%
- viability at 0.1 µM ([5]; read-out: Cell viability): 89.8%
- cytotoxicity at 0.1 µM [5, 8]: ~10%
- viability at 0.1 µM ([6]; read-out: Cell viability): 98.2%
- viability at 0.2 µM ([6]; read-out: Cell viability): 94.7%
- viability at 0.005 µM [7]: 95.8%
- viability at 0.01 µM [7]: 63.4%

SMILES: CC1=C(O)C(=O)C=C2C1=CC=C1[C@@]2(C)CC[C@@]2(C)[C@@H]3C[C@](C)(C(=O)O)CC[C@]3(C)CC[C@]12C [Celastrol]
- viability at 24 h, 0.25 μM ([1]; Cell viability, MCF-10A, celastrol 0.25 μM alone, 24 h): 98.9%
- viability at 24 h, 0.5 μM ([1]; Cell viability, MCF-10A, celastrol 0.5 μM alone, 24 h): 95.9%
- viability at 1 µM ([2]; read-out: Cell viability): 100%
- viability at 2 µM ([2]; read-out: Cell viability): 69.6%
- cytotoxicity at 2 µM [2, 8]: ~30%
- viability at 0.25 µM [3, 9]: 100%
- viability at 0.5 µM [3, 9]: 92.5%
- cytotoxicity at 0.5 µM ([3]; Homo sapiens, MDA-MB-435S, read-out: cell viability decreased, MDA-MB 435S, celastrol alone 0.5 μM): ~7%
- viability at 1 µM ([4]; read-out: Cell viability, T98G, celastrol 1 μM alone): 100%
- viability at 2 µM ([4]; read-out: Cell viability, T98G, celastrol 2 μM alone): 91.3%
- cytotoxicity at 2 µM [4, 8]: ~9%
- viability at 0.5 µM ([5]; read-out: Cell viability, HeLa, celastrol 0.5 μM alone): 100%
- viability at 1 µM ([5]; read-out: Cell viability, HeLa, celastrol 1 μM alone): 88.4%
- cytotoxicity at 1 µM [5, 8]: ~11%
- viability at 0.5 µM ([6]; read-out: Cell viability): 90.5%
- viability at 1 µM ([6]; read-out: Cell viability): 88.7%
- cytotoxicity at 1 µM [6, 8]: ~11%
- viability at 0.05 µM [7]: 90.7%
- viability at 0.1 µM [7]: 69%

SMILES: COc1cc(/C=C/C(=O)CC(=O)/C=C/c2ccc(O)c(OC)c2)ccc1O [Curcumin]
- viability at 24 h, 10 μM [1]: 97.7%
- viability at 24 h, 20 μM [1]: 95.9%
- viability at 15 µM ([2]; read-out: Cell viability): 78.5%
- viability at 30 µM ([2]; read-out: Cell viability): 68.2%
- cytotoxicity at 30 µM [2, 8]: ~32%
- viability at 10 µM [3, 9]: 70.7%
- viability at 20 µM [3, 9]: 58.8%
- cytotoxicity at 20 µM [3, 10]: ~41%
- viability at 10 µM ([4]; read-out: Cell viability): 99.7%
- viability at 20 µM ([4]; read-out: Cell viability): 96.5%
- viability at 10 µM ([5]; read-out: Cell viability): 100%
- viability at 20 µM ([5]; read-out: Cell viability): 91.3%
- cytotoxicity at 20 µM [5, 8]: ~9%
- viability at 20 µM ([6]; read-out: Cell viability): 96.7%
- viability at 30 µM ([6]; read-out: Cell viability): 89%
- viability at 10 µM [7]: 93.6%
- viability at 20 µM [7]: 61.9%
